Measured values published in patent US10426775B2, “Methods for treating Friedreich's ataxia with etravirine” (Fratagene Therapeutics srl, priority 2017, dated 2019).

Key:
Type in all cases: cell-based, human
aconitase = test: Aconitase activity in FRDA lymphoblast extracts (spectrophotometric, 340 nm); details: GM16214 lymphoblasts, 500 nM etravirine, after 48 hours, compared with GM16215
Experimental: Whole-cell extracts from GM16215 lymphoblasts, GM16214 lymphoblasts and GM16214 lymphoblasts treated with etravirine were prepared in ice-cold CelLytic M buffer (Sigma-Aldrich) supplemented with 2 mM sodium citrate and Complete EDTA-free protease inhibitor cocktail (Roche Diagnostic). Spectrophotometric aconitase assays were performed at 25° C. with 100 μg of cell extracts using the BIOXYTECH Aconitase-340™ Assay (OxisResearch™ 21041). Spectrophotometric citrate synthase activities were assessed at 25° C. with 10-20 μg of cell extracts using the Citrate Synthase Assay Kit (Sigma-Aldrich CS0720). […] For the calculation of the activities, one unit of enzyme was expressed as the amount of protein that converted 1 μmol of substrate per minute at 25° C. Quantitative data are presented as mean±SEM of at least three independent experiments.
To further explore the therapeutic potential of etravirine, we considered its ability to correct some of the defects associated with frataxin loss in cells derived from patients. […] To evaluate whether the increase in frataxin levels promoted by etravirine treatment is sufficient to restore ISC biogenesis in FRDA patient-derived cells, we measured the activity of aconitase upon etravirine treatment and compared it to the activity observed in cells derived from the healthy carrier parent. […]

frataxin = test: Western blot of frataxin in lymphoblastoid cell lines derived from FRDA patients; details: GM16214, 500 nM etravirine, 24 and 48 hours, compared with GM16215
[1] = tested on: newly synthesized frataxin mRNA; test: Nascent frataxin transcripts (EU metabolic labeling, Click-iT capture, real-time PCR) in HEK293-fxn; details: 10 μM, 4 or 8 hours
Text: We then investigated whether the observed increase in frataxin protein levels is due to an upregulation of the frataxin mRNA, either promoted by an increase in the […] rate of frataxin mRNA or by its stabilization. To understand whether etravirine promotes de novo synthesis of frataxin mRNA, we metabolically labeled nascent transcripts through the incorporation of 5-ethynyl uridine (EU). Through a click chemistry-based reaction, biotin was then conjugated to EU-labelled transcripts, thus allowing selective isolation and analysis of newly synthesized mRNA. We therefore quantitatively analyzed the relative amount of newly synthesized frataxin mRNA in etravirine-treated HEK293-fxn cells, compared to untreated control cells. […] We then analyzed the effect of etravirine on the decay of frataxin transcript observed upon treatment with actinomycin. HEK293-fxn cells were treated with actinomycin for 4, 8 or 12 hours in the presence or absence of etravirine and frataxin mRNA was quantitated by RT-PCR.
HEK 293-fxn stably expressing frataxin (A), HEK 293 (B), or FRDA lymphoblast cell line GM16203 (C) were treated with 10 μM etravirine for the indicated time points. Protein extracts were resolved on SDS-PAGE and analyzed by western blot with anti-frataxin antibody and anti-tubulin as a loading control. Etr: etravirine; tub: tubulin; fxn pre: frataxin precursor. […]

Cc1cc(C#N)cc(C)c1Oc1nc(Nc2ccc(C#N)cc2)nc(N)c1Br [etravirine]
aconitase activity in FRDA cells (aconitase): restore aconitase activity
frataxin levels in FRDA cells during etravirine treatment (frataxin): increase over time
relative amount of newly synthesized frataxin mRNA vs untreated control cells [1]: did not observe any difference
